Source: patent publication US6335350B1, “Acetamide and substituted acetamide-containing thiourea inhibitors of herpes viruses” (American Home Products Corporation, priority 1998, dated 2002)
In brackets after ≈: the same amount, converted by molar mass.

What was measured:
HCMV wild-type = assay: HCMV yield assay; assay type: cell-based, human cytomegalovirus; settings: human foreskin fibroblasts; for IC50: Human betaherpesvirus 5, Fibroblast, read-out: IC50 Ug/ml HCMV
Description: Yield assay. Monolayer cultures of human foreskin fibroblasts are infected with HCMV wild-type, typically at a multiplicity of infection equal to 0.2, in the presence of inhibitor compound (varying concentrations). At three days post-infection, total virus produced in these cultures (i.e. virus yield) is assessed by harvesting and titering the virus in 12-well plates of cultured human foreskin fibroblasts (done in the absence of inhibitor). Plaques are quantified at 2 weeks post-infection. An inhibitor of HCMV is identified by the reduction in titer of virus yield in the presence, compared to the titer in the absence of compound. In this assay, the relative anti-HCMV activity of an inhibitor is typically determined by calculating the IC50 or IC90 value, that is, the amount of compound required to reduce the virus yield by 50% or 90%, respectively. Table I describes IC50 data for compounds tested against HCMV.

VZV strain Ellen = assay: VZV Antiviral (ELISA) Assay; assay type: cell-based, varicella-zoster virus; settings: human foreskin fibroblast cells; for IC50 / inhibition at 10 µg/mL: Human alphaherpesvirus 3, Fibroblast; for IC50: read-out: IC50 Ug/ml VZV; for inhibition at 10 µg/mL: read-out: % inhibition 10 ug/ml VZV, 10 ug/ml
Description: For the generation of stock VZV to be used in the assay, VZV strain Ellen (ATCC #VR-1367) is used to infect human foreskin fibroblast (HFF) cells at low multiplicity (less than 0.1) and incubated overnight at 37° C. in 5% CO2. After the overnight incubation, the mixture of uninfected and VZV-infected HFF infected cells are then harvested and added to each well of 96-well plates (3.5×10^4 cells in 100 μl DMEM supplemented with 2% FBS) which contain test compound or the reference standard drug control (in 100 μl DMEM supplemented with 2% FBS per well). These cells are incubated for three days at 37° C. in 5% CO2, then fixed for ELISA assay. The primary antibody is murine anti-VZV glycoprotein II monoclonal antibody (Applied Biosystems, Inc. #13-145-100) and the secondary antibody is goat anti-mouse IgG linked to β-galactosidase. Thus the extent of viral replication is determined by assessing β-galactosidase activity by quantifying the generation of the 4-methyl umbelliferone fluorescent cleavage product after addition of the methyl umbelliferyl-β-D-galactoside (Sigma #M1633) substrate on a microfluorimeter (365 nm for excitation and 450 nm for emission). Antiviral activity (IC50) of the test compound is determined by comparing the flourescence obtained in absence of compound to that obtained in the presence of compound.

HSV-1 = assay: HSV Antiviral (ELISA) Assay; assay type: cell-based, herpes simplex virus type 1; settings: Vero cells, HSV-1; for IC50: Human alphaherpesvirus 1, Vero, read-out: IC50 Ug/ml HSV
Description: Vero cells (ATCC #CCL-81) are plated on 96-well tissue culture plates at 3.5×10^4 cells per 100 μl tissue culture DMEM (Dulbecco's modified Eagle media) supplemented with 2% fetal bovine serum (FBS) in each well. After overnight incubation @ 37° C. (in 5% CO2) and 30 minutes prior to infection with HSV-1 (multiplicity of infection equal to 0.006), cells are either untreated, or treated with test compound (multiple concentrations) or reference standard drug control. After approximately 24 hours post-infection incubation @ 37° C. (in 5% CO2), cells are fixed for ELISA assay. The primary antibody is murine anti-HSV glycoprotein D monoclonal primary antibody and the secondary antibody is goat anti-mouse IgG linked to β-galactosidase. Thus the extent of viral replication is determined by assessing β-galactosidase activity by quantifying the generation of the 4-methyl umbelliferone fluorescent cleavage product after addition of the methyl umbelliferyl-β-D-galactoside (Sigma #M1633) substrate on a microfluorimeter (365 nm for excitation and 450 nm for emission). Antiviral activity (IC50) of the test compound is determined by comparing the flourescence obtained in absence of compound to that obtained in the presence of compound.

Structure (SMILES) | IC50 (HCMV wild-type) | IC50 (VZV strain Ellen) | inhibition at 10 µg/mL (VZV strain Ellen) | IC50 (HSV-1) | IC50 Ug/ml HCMV (HCMV wild-type) | % inhibition 10 ug/ml VZV (VZV strain Ellen; 10 ug/ml) | IC50 Ug/ml VZV (VZV strain Ellen) | IC50 Ug/ml HSV (HSV-1)
CC(=O)Nc1ccc(NC(=S)Nc2ccc(N3CCCCC3)c(Cl)c2)cc1 [Example 239, N-{4-[3-(3-Chloro-4-piperidin-1-yl-phenyl)-thioureido]-phenyl}-acetamide] | > 10 µg/mL | > 10 µg/mL | 33% | 25 µg/mL (≈ 62 µM) | – | – | – | –
CC(=O)Nc1ccc(NC(=S)Nc2ccc(N(C)C)c(Cl)c2)cc1 [Example 240, N-{4-[3-(3-Chloro-4-dimethylamino-phenyl)-thioureido]-phenyl}-acetamide] | 1.5 µg/mL (≈ 4.13 µM) | > 10 µg/mL | 5% | > 50 µg/mL | – | – | – | –
CC(=O)Nc1ccc(NC(=S)Nc2ccc(NCc3ccccc3)c(Cl)c2)cc1 [Example 241, N-{4-[3-(4-Benzylamino-3-chloro-phenyl)-thioureido]-phenyl}-acetamide] | 2 µg/mL (≈ 4.71 µM) | > 10 µg/mL | 24% | 10 µg/mL (≈ 23.5 µM) | – | – | – | –
CC(=O)Nc1ccc(NC(=S)Nc2ccc(N3CCCC3)c(Cl)c2)cc1 [Example 242, N-{4-[3-(3-Chloro-4-pyrrolidin-1-yl-phenyl)-thioureido]-phenyl}-acetamide] | > 10 µg/mL | > 10 µg/mL | 20% | 50 µg/mL (≈ 129 µM) | – | – | – | –
CC(=O)Nc1ccc(NC(=S)Nc2ccc(N3CCN(C)CC3)c(Cl)c2)cc1 [Example 243, N-(4-{3-[3-Chloro-4-(4-methyl-piperazin-1-yl)-phenyl]-thioureido}-phenyl)-acetamide] | 40 µg/mL (≈ 95.7 µM) | > 10 µg/mL | 4% | > 50 µg/mL | – | – | – | –
COc1ccc(NC(=S)Nc2ccc(NC(C)=O)cc2)c(NCc2ccccc2)c1 [Example 245, N-{4-[3-(2-Benzylamino-4-methoxy-phenyl)-thioureido]-phenyl}-acetamide] | > 10 µg/mL | 3.5 µg/mL (≈ 8.32 µM) | 73% | > 10 µg/mL | – | – | – | –
CC(=O)Nc1ccc(NC(=S)Nc2ccc(OCC#N)c(Cl)c2)cc1 [Example 251, N-(4-{3-[3-Chloro-4-(2-nitrilo-ethoxy)-phenyl]-thioureido}-phenyl)-acetamide] | 7 µg/mL (≈ 18.7 µM) | > 10 µg/mL | 22% | > 50 µg/mL | – | – | – | –
CCC(C)Oc1ccc(NC(=S)Nc2ccc(NC(C)=O)cc2)cc1Cl (centres unmarked) [Example 252, N-{4-[3-(4-sec-Butoxy-3-chloro-phenyl)-thioureido]-phenyl}-acetamide] | 10 µg/mL (≈ 25.5 µM) | > 10 µg/mL | 0% | 10 µg/mL (≈ 25.5 µM) | – | – | – | –
COc1cc(OC)c(NC(=S)Nc2ccc(NC(C)=O)c(C#N)c2)cc1Cl [Example 259, N-{4-[3-(5-Chloro-2,4-dimethoxy-phenyl)-thioureido]-2-cyano-phenyl}-acetamide] | > 50 µg/mL | > 10 µg/mL | 28% | > 50 µg/mL | – | – | – | –
COc1cc(OC)c(NC(=S)Nc2cc(OC)c(NC(C)=O)cc2OC)cc1Cl [Example 261, N-{4-[3-(5-Chloro-2,4-dimethoxy-phenyl)-thioureido]-2,5-dimethoxy-phenyl}-acetamide] | > 10 µg/mL | > 10 µg/mL | 1% | > 10 µg/mL | – | – | – | –
CC(=O)Nc1ccc(NC(=S)Nc2ccc(Oc3ccc(Cl)cc3S(=O)(=O)O)c(Cl)c2)cc1 [Example 262, 2-{4-[3-(4-Acetylamino-phenyl)-thioureido]-2-chloro-phenoxy}-5-chloro-benzenesulfonic acid] | > 50 µg/mL | > 10 µg/mL | 15% | > 50 µg/mL | – | – | – | –
CC(=O)Nc1ccc(NC(=S)Nc2ccc(Oc3cc(Cl)c(Cl)cc3S(=O)(=O)O)c(Cl)c2)cc1 [Example 263, 2-{4-[3-(4-Acetylamino-phenyl)-thioureido]-2-chloro-phenoxy}-4,5-dichloro-benzensulfonic acid] | > 50 µg/mL | > 10 µg/mL | 20% | > 50 µg/mL | – | – | – | –
CC(=O)Nc1ccc(NC(=S)Nc2ccc(OCCO)c(Cl)c2)cc1 [Example 265, N-(4-{3-[3-Chloro-4-(2-hydroxy-ethoxy)-phenyl]-thioureido}-phenyl)-acetamide] | > 50 µg/mL | > 10 µg/mL | 20% | > 50 µg/mL | – | – | – | –
CCCCOc1ccc(NC(=S)Nc2ccc(NC(C)=O)cc2)cc1Cl [Example 266, N-{4-[3-(4-Butoxy-3-chloro-phenyl)-thioureido]-phenyl}-acetamide] | > 10 µg/mL | > 10 µg/mL | 10% | 12 µg/mL (≈ 30.6 µM) | – | – | – | –
CCN(c1ccc(NC(=S)Nc2ccc(NC(C)=O)cc2)cc1Cl)C1CCCCC1 [Example 267, N-(4-{3-[3-Chloro-4-(cyclohexyl-ethyl-amino)-phenyl]-thioureido}-phenyl)-acetamide] | > 10 µg/mL | > 10 µg/mL | 25% | > 10 µg/mL | – | – | – | –
CCOc1ccc(NC(=S)Nc2ccc(NC(C)=O)cc2)cc1Cl [Example 268, N-{4-[3-(3-Chloro-4-ethoxy-phenyl)-thioureido]-phenyl}-acetamide] | 10 µg/mL (≈ 27.5 µM) | > 10 µg/mL | 14% | > 10 µg/mL | – | – | – | –
CC(=O)Nc1ccc(NC(=S)Nc2ccc(OCc3ccccc3)c(Cl)c2)cc1 [Example 269, N-{4-[3-(4-Benzyloxy-3-chloro-phenyl)-thioureido]-phenyl}-acetamide] | 5 µg/mL (≈ 11.7 µM) | > 10 µg/mL | 38% | > 10 µg/mL | – | – | – | –
COc1cc(NCc2ccccc2)c(NC(=S)Nc2ccc(NC(C)=O)cc2)cc1Cl [Example 271, N-{4-[3-(2-Benzylamino-5-chloro-4-methoxy-phenyl)-thioureido]-phenyl}-acetamide] | > 10 µg/mL | 3.5 µg/mL (≈ 7.69 µM) | 105% | 7 µg/mL (≈ 15.4 µM) | – | – | – | –
CCCN(CCC)c1ccc(NC(=S)Nc2ccc(NC(C)=O)cc2)cc1Cl [Example 272, N-{4-[3-(3-Chloro-4-dipropylamino-phenyl)-thioureido]-phenyl}-acetamide] | > 10 µg/mL | > 10 µg/mL | 50% | > 50 µg/mL | – | – | – | –
C=CCN(c1ccc(NC(=S)Nc2ccc(NC(C)=O)cc2)cc1Cl)C1CCCCC1 [Example 273, N-(4-{3-[4-(Allyl-cyclohexyl-amino)-3-chloro-phenyl]-thioureido}-phenyl)-cetamide] | – | – | – | – | >10 Ug/ml | 46% | >10 Ug/ml | >50 Ug/ml
COc1cc(OC)c(NC(=S)Nc2ccc(NC(C)=O)c(OC)c2)cc1Cl [Example 274, N-{4-[3-(5-Chloro-2,4-dimethoxy-phenyl)-thioureido]-2-methoxy-phenyl}-acetamide] | > 50 µg/mL | > 10 µg/mL | 15% | 5 µg/mL (≈ 12.2 µM) | – | – | – | –
COc1cc(OC)c(NC(=S)Nc2ccc(NC(C)=O)c(Cl)c2)cc1Cl [Example 275, N-{2-Chloro-4-[3-(5-chloro-2,4-dimethoxy-phenyl)-thioureido]-phenyl}-acetamide] | > 10 µg/mL | > 10 µg/mL | 32% | 10 µg/mL (≈ 24.1 µM) | – | – | – | –
CC(=O)Nc1ccc(NC(=S)Nc2ccc(N3CCCC4CCCCC43)c(Cl)c2)cc1 (centres unmarked) [Example 282, N-(4-{3-[3-Chloro-4-(octahydro-quinolin-1-yl)-phenyl]-thioureido}-phenyl)-acetamide] | > 10 µg/mL | > 10 µg/mL | 50% | > 10 µg/mL | – | – | – | –
